According to US8563596B2, “Enantiomerically pure compounds for the treatment of proliferative disorders” (Piramal Enterprises Limited, priority 2006, dated 2013):
Like-named read-outs stand apart in the source and are kept apart here.

Legend:
HT-29 (Colon) [1] = format: cell-based, human
Description: (§1) Exponentially growing cultures of […] human cancerous cell lines (Calu1 lung, A-549 lung, HT-29 colon, HL-60 Promyelocytic Leukemia, PC-3 Prostate, H-460 Lung, MDA-MB-231 Breast, MCF-7 Breast, HeLa Cervix, Colo-205 Colon, H9 Lymphoma (T Cells), U-937 Histiocytic Lymphoma (monocytes) and CaCO-2 Colon) obtained from NCCS, Pune, India were used. The in vitro cell proliferation (NCl, USA protocol) and cytotoxicity assays were carried out using standard procedures viz. ^3H-Thymidine uptake and MTS assay, respectively (For ^3H-Thymidine uptake: Cell Biology, A Laboratory Handbook, 1998, Vol 1 Ed Julio E. Celis, and For MTS assay: Promega Protocol, USA, 2000). In the ^3H-Thymidine uptake assay, cells were harvested after 72 hours onto GF/B unifilter plates (Packard, USA) using a Packard Filtermate Universal harvester and the plates were counted on a Packard TopCount 96-well liquid scintillation counter. The concentration of compound at which 50% of proliferative activity was inhibited (IC50) and the degree of toxicity of compound were calculated for representative compounds and their pharmaceutically acceptable salts described in the Examples.

Calu1 (Lung) [2] = format: cell-based, human
Description: as §1

A-549 (Lung) [3] = format: cell-based, human
Description: as §1

CDK2-cyclin E = molecular target: T1, CDK2-cyclin E (Homo sapiens, UniProt P24941); test: CDK2/Cyclin E kinase assay (32P phosphorylation of GST-Rb, filter plate); format: biochemical; details: 30 min at 30° C.; GST-Rb substrate
T1 construct: made in house; host or cells: Sf9 insect cells (baculovirus)
From the text: (§2) CDK4/Cyclin D1 Kinase Assay and CDK2/Cyclin E Kinase Assay
(§3) The assays measure phosphorylation of retinoblastoma protein (Rb) by CDK4 or CDK2 upon activation by cyclin D1 or cyclin E, respectively, through the transfer of (γ^32P)-phosphate from γ^32P-ATP in a 96-well filter plate assay.
(§4) CDK4 or CDK2 was co-expressed with cyclin D1 or cyclin E, respectively, by a baculovirus expression system in insect cells. For this, 1×10^7 Sf9 cells were coinfected with baculoviruses containing human CDK-4 or 2 and cyclin D1 or E genes and after 72 hours cells were lysed in 500 μl of a lysis buffer (50 mM HEPES (pH 7.5), 10 mM MgCl2, 1 mM DTT, 5 μg/ml of aprotinin, 5 μg/ml of leupeptin, 0.1 mM NaF, 0.2 mM phenylmethylsulfonyl fluoride (PMSF), and sodium orthovanadate. Centrifuged lysate was purified on a GST-sepharose column. Purity of the proteins was checked by SDS-PAGE followed by western blots using specific antibodies (Santacruz Biotec, USA) to CDK4 or CDK2.
(§5) GST-retinoblastoma (Rb) (aa 776-928) fusion protein is expressed in the bacteria E. coli and purified by GSH-Sepharose affinity chromatography. The GST-Rb bound to these beads served as the substrate in the assay.
(§6) Quantitation was by scintillation detection of (^32P)-GST-Rb in 96-well filter plates using Top Count scintillation 96-well counter (Packard, USA).
The CDK4 or CDK2 enzyme assay was run in 96-well format using Millipore ultiscreen filtration plates. All assay steps took place in a single filter plate (Unifilter plates, Packard, USA). The filtration wells were pre-wet with kinase buffer (100 μl/well) and the solution was then removed by the application of vacuum, with the filter plate on a vacuum manifold and the vacuum on. 50 μl of GST-Rb bound to GSH-Sepharose beads in kinase buffer (0.5 μg GST-Rb/50 μl) was added to each well and vacuum was applied to remove the buffer. A further 25 μl of a reaction mix containing ATP (cold+hot) and phosphatase inhibitors diluted in kinase buffer were added to each well, followed by the addition of test compound (4× final concentration in kinase buffer) or kinase buffer (control) in an additional 25 μl volume. Finally 50 μl (100 ng) of human CDK-4/D1 or CDK-2/E enzyme in kinase buffer was added to each well to initiate the reaction. The reaction was incubated for 30 min at 30° C. After the reaction was complete, vacuum was applied and the plate was washed with the wash buffer (TNEN buffer) three times. The filter plate was air-dried and placed in a Multiscreen adapter plate. To each well, 30 μl Packard Microscint-O cocktail was added and the plate was covered with a Top-Seal A film. The plate was counted in a Packard Top Count Scintillation Counter for 10 min. […]

CDK4-cyclin D1 = molecular target: T2, CDK4-cyclin D1 (Homo sapiens, UniProt P11802); test: CDK4/Cyclin D1 kinase assay (32P phosphorylation of GST-Rb, filter plate); format: biochemical; details: 30 min at 30° C.; GST-Rb substrate
T2 construct: made in house; host or cells: Sf9 insect cells (baculovirus)
From the text: as §2, §3, §4, §5, §6
The CDK4 or CDK2 enzyme assay was run in 96-well format using Millipore ultiscreen filtration plates. All assay steps took place in a single filter plate (Unifilter plates, Packard, USA). The filtration wells were pre-wet with kinase buffer (100 μl/well) and the solution was then removed by the application of vacuum, with the filter plate on a vacuum manifold and the vacuum on. 50 μl of GST-Rb bound to GSH-Sepharose beads in kinase buffer (0.5 μg GST-Rb/50 μl) was added to each well and vacuum was applied to remove the buffer. […] The plate was counted in a Packard Top Count Scintillation Counter for 10 min. […]

HT-29 (Colon) [4] = test: In vitro cell proliferation, 3H-Thymidine uptake assay; format: cell-based, human; details: cells harvested after 72 hours
Description: as §1

Calu1 (Lung) [5] = test: as above; format: cell-based, human; details: cells harvested after 72 hours
Description: as §1

A-549 (Lung) [6] = test: as above; format: cell-based, human; details: cells harvested after 72 hours
Description: as §1

T2 sequence (P11802 whole entry): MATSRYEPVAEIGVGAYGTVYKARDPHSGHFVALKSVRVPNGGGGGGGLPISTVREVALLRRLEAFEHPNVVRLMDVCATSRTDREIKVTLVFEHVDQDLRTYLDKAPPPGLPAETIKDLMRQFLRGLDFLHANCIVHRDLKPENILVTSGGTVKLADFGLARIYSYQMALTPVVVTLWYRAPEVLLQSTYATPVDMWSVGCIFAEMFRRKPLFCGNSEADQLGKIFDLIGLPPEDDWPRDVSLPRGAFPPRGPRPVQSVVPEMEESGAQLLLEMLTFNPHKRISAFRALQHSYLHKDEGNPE
T2 sequence (P24385 whole entry partner): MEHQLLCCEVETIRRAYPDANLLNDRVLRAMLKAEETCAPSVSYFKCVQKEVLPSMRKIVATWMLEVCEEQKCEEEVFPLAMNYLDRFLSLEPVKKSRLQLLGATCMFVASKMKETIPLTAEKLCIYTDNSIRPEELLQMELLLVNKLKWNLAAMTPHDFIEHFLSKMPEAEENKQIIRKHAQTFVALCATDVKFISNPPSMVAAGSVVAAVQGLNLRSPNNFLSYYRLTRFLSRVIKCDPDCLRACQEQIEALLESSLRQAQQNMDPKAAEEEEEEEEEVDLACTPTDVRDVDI

| melting point [°C] | Compound | IC50 (HT-29 (Colon) [1]) [nM] | IC50 (Calu1 (Lung) [2]) [nM] | IC50 (A-549 (Lung) [3]) [nM] | IC50 (CDK2-cyclin E) [µM] | IC50 (CDK4-cyclin D1) [µM] | IC50 (HT-29 (Colon) [4]) [µM] | IC50 (Calu1 (Lung) [5]) [µM] | IC50 (A-549 (Lung) [6]) [µM] |
| --- | --- | --- | --- | --- | --- | --- | --- | --- | --- |
| 253 to 254 | CN1CC[C@@H](c2c(O)cc(O)c3c(=O)cc(-c4cc(F)ccc4Cl)oc23)[C@@H]1CO | – | – | – | – | – | – | – | – |
| 91 to 93 | COc1cc(OC)c2c(=O)cc(-c3ccccc3Cl)oc2c1[C@@H]1CCN(C)[C@H]1CO | – | – | – | – | – | – | – | – |
| – | (+)-trans-2-(2-Chloro-4-nitrophenyl)-5,7-dihydroxy-8-(2-hydroxymethyl-1-methylpyrrolidin-3-yl)-chromen-4-one hydrochloride [Example 50] | 1100 | 1400 | 1200 | 1.7 | 0.045 | 1.5 | < 0.3 | 1.2 |
| – | (+)-trans-2-(2-Chlorophenyl)-5,7-dihydroxy-8-(2-hydroxymethyl-1-methyl-pyrrolidin-3-yl)-chromen-4-one hydrochloride [Example 10] | 580 | 880 | 700 | 2.8 | 0.065 | 0.68 | < 0.3 | 0.18 |
| – | (−)-trans-2-(2-Chloro-4-nitrophenyl)-5,7-dihydroxy-8-(2-hydroxymethyl-1-methylpyrrolidin-3-yl)-chromen-4-one hydrochloride [Example 97-(D)] | – | – | – | > 10 | 1 | 10 | – | – |
| – | (−)-trans-2-(2-Chlorophenyl)-5,7-dihydroxy-8-(2-hydroxymethyl-1-methyl pyrrolidin-3-yl)-chromen-4-one hydrochloride [Example 96-(F)] | 17900 | 16300 | 16000 | 21 | – | 25 | – | 10 |
